Laboratory results from patent publication US4358607A, “Chloro-substituted benzospiro cyclopropane carboxylic acid” (American Cyanamid Co., priority 1978, dated 1982).

Columns and labels:
Type in all cases: in vivo
[1] = system: Southern Armyworm [Spodoptera eridania]; assay: Southern Armyworm residual activity, 7 days; settings: 7 days from original treatment
Procedure: (§1) Southern Armyworm [Spodoptera eridania (Cramer)].
(§2) A sieva lima bean plant with just the primary leaves expanded to 7.6 to 10 cm is dipped for 3 seconds with agitation in a 1000 ppm solution and set in a hood to dry. Following this, one leaf is placed in a 10 cm petri dish which has a moist filter paper in the bottom and 10 third-instar armyworm larvae about 1 cm long. The dish is covered and held at 26.7° C. After 2 days mortality counts and estimates of the amount of feeding are made. Compounds showing partial kill and/or inhibition of feeding are held for an extra day for further observations.
All compounds showing activity as defined above are retested, using the second leaf on the bean plant, after an interval of 7 days from original treatment, as an assay of residual activity.
The rating system employed in these tests is as follows: […]

[2] = system: Mexican Bean Beetle (Epilachna varivestis); assay: Mexican Bean Beetle test
Description: Mexican Bean Beetle (Epilachna varivestis Mulsant)
Sieva lima bean plants (2 per pot) with primary leaves 7.6 to 10 cm long, are dipped in a 300 ppm solution and set in a hood to dry. One leaf is removed from the plant and placed in a 10 cm petri dish containing a moist filter paper on the bottom and 10 last-instar larvae (13 days from hatching).
The day after treatment, another leaf is removed from the plant and fed to the larvae after removing the remains of the original leaf. Two days after treatment, the third leaf is fed to the larvae, this usually being the last needed. The fourth leaf is used on the third day after treatment if the larvae have not finished feeding. The test is now set aside and held until adults have emerged, usually about 9 days after treatment began. After emergence is complete, each dish is examined for dead larvae, pupae or adults; deformed pupae or adults; larval-pupal intermediates or pupal-adult intermediates; or any other interference with normal molting, transformation and emergence of pupae or adults.
(§3) The rating system employed in these tests is as follows:
(§4) Compounds rated active (8 or 9) are further tested at reduced concentrations in 50% acetone: 50% water.

[3] = system: Two-Spotted Spider Mite [Tetranychus urticae]; assay: Phosphate-Resistant Strain of Two-Spotted Spider Mite test
Procedure: Phosphate-Resistant Strain of Two-Spotted Spider Mite [Tetranychus urticae (Koch)].
Sieva lima bean plants, with primary leaves 7.6 to 10 cm long, are infested with about 100 adult mites per leaf 4 hours before use in this test, in order to allow egg-laying before treatment. The infested plants are dipped for 3 seconds with agitation into a 300 ppm solution, and the plants set in the hood to dry. After 2 days at 26.7° C., the adult mite mortality is estimated on one leaf under a 10X stereoscopic microscope. The other leaf is left on the plant an additional 5 days and then examined at 10X power to estimate the kill of eggs and of newly-hatched nymphs, giving a measure of ovicidal and residual action, respectively.
as §3, §4

[4] = system: Southern Armyworm [Spodoptera eridania]; assay: Southern Armyworm test; settings: 2 days
Procedure: as §1, §2, §3, §4

CC1(C)C(C(=O)OC(C#N)c2cccc(Oc3ccccc3)c2)C12C=C(Cl)c1ccccc12 (stereo not shown) [drawing 11]
Insecticidal activity rating, Southern Armyworms, 7-days [1]: 0 (0-4% killed or affected) | Insecticidal activity rating, Mexican Bean Beetles ([2]; 10 ppm): 9 (100% mortality) | Insecticidal activity rating, Mexican Bean Beetles ([2]; 100 ppm): 9 (100% mortality) | Insecticidal activity rating, Mexican Bean Beetles ([2]; 300 ppm): 9 (100% mortality) | Activity rating, Phosphate Resistant Mites ([3]; 10 ppm): 0 (0-4% killed or affected) | Activity rating, Phosphate Resistant Mites ([3]; 100 ppm): 5 (51-60% mortality) | Activity rating, Phosphate Resistant Mites ([3]; 300 ppm): 8 (86-95% mortality) | Insecticidal activity rating, Southern Armyworms ([4]; 10 ppm): 7 (71-85% mortality) | Insecticidal activity rating, Southern Armyworms ([4]; 100 ppm): 9 (100% mortality) | Insecticidal activity rating, Southern Armyworms ([4]; 1000 ppm): 9 (100% mortality)
